Experimental data as given in patent US8530667B2, “Herbicides” (Syngenta Limited, priority 2007, dated 2013).

Columns and labels:
Assay type in all cases: in vivo
[1] = system: Echinochloa crus-galli (ECHCG); assay: Example B pre-emergence herbicidal activity, glasshouse pot test; conditions: 312 h, Rate 250 g/ha, evaluated after 13 days, read-out: Pre-Emergence Activity ECHCG (100=total damage to plant; 0=no damage to plant)
Description: (§1) Seeds of a variety of test species were sown in standard soil in pots. After cultivation for one day (pre-emergence) or after 8 days cultivation (post-emergence) under controlled conditions in a glasshouse (at 24/16° C., day/night; 14 hours light; 65% humidity), the plants were sprayed with an aqueous spray solution derived from the formulation of the technical active ingredient in acetone/water (50:50) solution containing 0.5% Tween 20 (polyoxyethelyene sorbitan monolaurate, CAS RN 9005-64-5). The test plants were then grown in a glasshouse under controlled conditions in a glasshouse (at 24/16° C., day/night; 14 hours light; 65% humidity) and watered twice daily. After 13 days for pre and post-emergence, the test was evaluated (100=total damage to plant; 0=no damage to plant). Alopecurus myosuroides (ALOMY), Avena fatua (AVEFA), Setaria faberi (SETFA), Echinochloa crus-galli (ECHCG) and Amaranthus retoflexus (AMARE)

Avena fatua (AVEFA) [2] = assay: as above; conditions: 312 h, Rate 250 g/ha, evaluated after 13 days, read-out: Pre-Emergence Activity AVEFA (100=total damage to plant; 0=no damage to plant)
Description: as §1

[3] = system: Amaranthus retoflexus (AMARE); assay: as above; conditions: Amaranthus retroflexus, 312 h, Rate 250 g/ha, evaluated after 13 days, read-out: Pre-Emergence Activity AMARE (100=total damage to plant; 0=no damage to plant)
Description: as §1

[4] = system: Alopecurus myosuroides (ALOMY); assay: as above; conditions: 312 h, Rate 250 g/ha, evaluated after 13 days, read-out: Pre-Emergence Activity ALOMY (100=total damage to plant; 0=no damage to plant)
Description: as §1

Setaria faberi (SETFA) [5] = assay: as above; conditions: 312 h, Rate 250 g/ha, evaluated after 13 days, read-out: Pre-Emergence Activity SETFA (100=total damage to plant; 0=no damage to plant)
Description: as §1

[6] = system: Echinochloa crus-galli (ECHCG); assay: Example B post-emergence herbicidal activity, glasshouse pot test; conditions: 312 h, rate 250 g/ha, evaluated after 13 days, read-out: Post-emergence activity ECHCG (100=total damage to plant; 0=no damage to plant)
Description: as §1

Avena fatua (AVEFA) [7] = assay: as above; conditions: 312 h, rate 250 g/ha, evaluated after 13 days, read-out: Post-emergence activity AVEFA (100=total damage to plant; 0=no damage to plant)
Description: as §1

[8] = system: Amaranthus retoflexus (AMARE); assay: as above; conditions: Amaranthus retroflexus, 312 h, rate 250 g/ha, evaluated after 13 days, read-out: Post-emergence activity AMARE (100=total damage to plant; 0=no damage to plant)
Description: as §1

[9] = system: Alopecurus myosuroides (ALOMY); assay: as above; conditions: 312 h, rate 250 g/ha, evaluated after 13 days, read-out: Post-emergence activity ALOMY (100=total damage to plant; 0=no damage to plant)
Description: as §1

Setaria faberi (SETFA) [10] = assay: as above; conditions: 312 h, rate 250 g/ha, evaluated after 13 days, read-out: Post-emergence activity SETFA (100=total damage to plant; 0=no damage to plant)
Description: as §1

Row | Structure (SMILES) | pest or weed control at 250 g/ha [1] [%] | pest or weed control at 250 g/ha (Avena fatua (AVEFA) [2]) [%] | pest or weed control at 250 g/ha [3] [%] | pest or weed control at 250 g/ha [4] [%] | pest or weed control at 250 g/ha (Setaria faberi (SETFA) [5]) [%] | pest or weed control at 250 g/ha [6] [%] | pest or weed control at 250 g/ha (Avena fatua (AVEFA) [7]) [%] | pest or weed control at 250 g/ha [8] [%] | pest or weed control at 250 g/ha [9] [%] | pest or weed control at 250 g/ha (Setaria faberi (SETFA) [10]) [%]
1 | CCc1sc(-c2ccc(Br)cc2C)nc1C1=C(OC(=O)c2ccc(Cl)cc2)[C@@H]2[C@H](C1=O)[C@H]1CC[C@@H]2O1 (racemic) [Compound P8] | 100 | 30 | 0 | 90 | 100 | 100 | 100 | 0 | 100 | 100
2 | CCc1sc(-c2ccc(Cl)cc2)nc1C1=C(OC(=O)C2CC2)[C@@H]2[C@H](C1=O)[C@H]1CC[C@@H]2O1 (racemic) [Compound P4, cyclopropanecarboxylic acid-4-[2-(4-chloro-phenyl)-5-ethyl-thiazol-4-yl]-5-oxo-10-oxa-tricyclo[5.2.1.0*2,6*]dec-3-en-3-yl ester] | 90 | 90 | 0 | 60 | 90 | 100 | 100 | 0 | 100 | 100
3 | CCc1sc(-c2ccc(Br)cn2)nc1C1C(=O)[C@@H]2[C@H](C1=O)[C@H]1CC[C@@H]2O1 (stereo partly shown) [Compound T43] | 80 | 0 | 0 | 0 | 60 | 100 | 100 | 0 | 90 | 100
4 | CCc1sc(-c2ccc(Br)cc2C)nc1C1C(=O)[C@@H]2[C@H](C1=O)[C@H]1CC[C@@H]2O1 (stereo partly shown) [Compound T35] | 100 | 100 | 0 | 100 | 100 | 100 | 100 | 0 | 100 | 100
5 | CCc1sc(-c2ccc(Br)cc2)nc1C1C(=O)[C@@H]2[C@H](C1=O)[C@H]1CC[C@@H]2O1 (stereo partly shown) [Compound T29] | 90 | 90 | 20 | 50 | 90 | 100 | 100 | 0 | 100 | 100
6 | CSc1ccc(-c2nc(C3C(=O)[C@@H]4[C@H](C3=O)[C@H]3CC[C@@H]4O3)c(C)s2)cc1 (stereo partly shown) [Compound T48] | 70 | 20 | 0 | 40 | 90 | 100 | 40 | 40 | 60 | 90
7 | Cc1cnc(-c2ccc(Cl)cc2)nc1C1C(=O)[C@@H]2[C@H](C1=O)[C@H]1CC[C@@H]2O1 (stereo partly shown) [Compound T53] | 80 | 70 | 90 | 50 | 90 | 90 | 70 | 0 | 60 | 100
